# Experimental data taken from patent US7947739B2, “Tranexamic acid formulations” (Ferring B.V., priority 2004, dated 2011).
# Read-outs that look alike come from different tables or passages of the source.
# Columns and labels:
# [1] = cited from earlier work; for dose excreted unchanged in the urine: IV 1 g
# women with menorrhagia [2] = assay: Example 9: 6-cycle placebo-controlled study, menstrual blood loss (MBL) by alkaline hematin test; assay type: in vivo, human; conditions: 3.9 g/day
# women with menorrhagia [3] = assay: Example 8: 3-cycle study, Menorrhagia Instrument measures (MIQ Q1-Q6), responders, sanitary products, large stains; assay type: in vivo, human
# heavy menstrual bleeding = conditions: cited from earlier work
# [4] = Example 6: single dose followed by multiple doses study, noncompartmental plasma pharmacokinetics, linearity, steady state; assay type: in vivo, human; conditions: 1.3 g every 8 hours
# Protocol: After an overnight fast, subjects received a single oral dose of tranexamic acid (1.3 g) on Day 1. Blood samples were taken before dosing and up to 36 hours post-dose. Subjects received another single oral dose of tranexamic acid (1.3 g) on the evening of Day 2, and 3 times a day (every 8 hours) starting on the morning of Day 3 until the last dose on the morning of Day 7. Blood samples were taken before the 6th, 9th, 12th and 15th dose (the last dose) for the determination of Cmin, and up to 8 hours after the last dose, for the determination of drug concentration at steady-state. Subjects were housed from at least 10 hours before the 1st dose on Day 1 until after the 8-hour blood draw following the 15th dose (on Day 7). […]
# Calculations for plasma tranexamic acid were calculated by noncompartmental methods using the following pharmacokinetic parameters in Tables 15 and 16:
# Descriptive statistics including arithmetic means, standard deviations and coefficients of variation were calculated on the individual concentration and pharmacokinetic data. Additionally, geometric means were calculated for the parameters AUC0-t, AUCinf, and Cmax for Day 1 and AUCτ, Cmax and Cmin for Day 7. […]
# The ratio of LSM was calculated using the exponentiation of the Day LSM from the analysis on the In-transformed response. The ratio was expressed as a percentage relative to AUCinf (Day 1). […]
# [5] = Example 6: compartmental pharmacokinetic analysis; assay type: in vivo; conditions: female, human, plasma, oral, 1.3 g; 295 mL/min×0.449; read-out: systemic clearance (CL)
# Protocol: Compartmental analysis was performed on tranexamic acid data following single and multiple oral administrations of the modified release (MR) tablet formulation. Multiple compartmental models were constructed and their ability to fit plasma concentrations of tranexamic acid were evaluated using a standard two-stage (STS) approach with ADAPT-II (maximum likelihood analysis). The discrimination process was performed by computing the Akaike Information Criterion Test (AIC), the minimum value of the objective function (OBJ) and by looking at pertinent graphical representations of goodness of fit (e.g. fitted and observed concentrations versus time).
# The final analysis was performed using an iterative two-stage approach with the IT2S® software. This software uses a population methodology which allows one to provide robust PK parameter estimates on an individual subject and population basis. All relevant pharmacokinetic parameters were calculated and reported. Concentrations were modeled using a weighting procedure of Wj=1/Sj^2 where the variance σj^2 was calculated for each observation using the equation σj^2=(a+b*Yj)^2 where a and b are the intercept and slope of each variance model. […] The analysis included the quantitative estimation of population PK parameters and interindividual variability of tranexamic acid in plasma.
# women with menorrhagia [6] = assay: Example 8: 3-cycle placebo-controlled study, menstrual blood loss (MBL) by alkaline hematin test, also stratified by fibroids; assay type: in vivo, human; conditions: 3 cycles
# [7] = Published pharmacokinetics of tranexamic acid (Pilbrant et al.; Cyklokapron NDA); assay type: in vivo; conditions: human, serum, single 1.3 g oral dose, fasting, approx. 65% of 2 g dose published data
# Protocol: By comparison, the in vivo absorption profile observed with the European immediate-release formulation is slow and very gradual over 3 hours. Specifically, tranexamic acid serum concentrations are 9, 41, 73, 88 percent (with food), and 22, 63, 85, and 98 percent (fasting) of maximal absorption at 0.5, 1, 1.5 and 2 hours after a 2 g oral dose, respectively.
# Tranexamic acid is minimally bound (approximately 3%) to plasma proteins (mainly plasminogen) at “typical” therapeutic plasma concentrations of approximately 5-15 mg/L. The main route of elimination of tranexamic acid is renal glomerular filtration. After oral administration of tranexamic acid (250 or 500 mg) to healthy adults, between 40-70% of the administered dose is excreted unchanged in the urine within 24 hours. After IV administration (1 g) 30% of the dose is excreted unchanged in the urine within one hour, 45-55% within 2-3 hours and 90% within 24 hours.
# For this reason, the concentration-time profile of tranexamic acid was estimated by simulating the data over 36 hours, after oral administration of a 1.3 g dose under fasting conditions, using NONMEM. Based on the simulation results, it would be appropriate to collect blood samples until 36 hours in order to characterize the AUC, Cmax, tmax, t½ and F.
# women with menorrhagia [8] = assay: Example 9: 6-cycle study, Menorrhagia Instrument measures, responders, sanitary products, large stains; assay type: in vivo, human
# [9] = 3.9 g/day compared with placebo
smiles,measurement,setting,value
"NC[C@H]1CC[C@H](C(=O)O)CC1 [tranexamic acid, trans-4-(aminomethyl)cyclohexanecarboxylic acid]",therapeutic antifibrinolytic range (therapeutic window),[1]; Cyklokapron NDA 19-280,5 to 15 µg/mL
same,dose excreted unchanged in the urine,[1]; within 2-3 hours,45-55%
same,dose excreted unchanged in the urine,[1]; within 24 hours,90%
same,dose excreted unchanged in the urine,[1]; within one hour,30%
same,urinary recovery,"[1]; Pilbrant, et al.",exceeded 95 % of the dose
same,gamma elimination half-life,[1]; after IV administration,approximately 7 hours
same,bound to plasma proteins,[1]; at therapeutic plasma concentrations of approximately 5-15 mg/L,approximately 3%
same,beta elimination half-life,[1]; in vivo,2 h
same,excreted unchanged drug in the urine,[1]; in vivo,more than 95%
same,typical therapeutic plasma concentrations,[1]; in vivo,5 to 15 mg/L
same,administered dose excreted unchanged in the urine,"[1]; oral 250 or 500 mg, healthy adults, within 24 hours",40-70%
same,mean reduction in MBL from baseline,"women with menorrhagia [2]; […], 6-cycle study",69.6 mL
same,percent MBL reduction compared with baseline,"women with menorrhagia [2]; […], 6-cycle study",40.4%
same,regression slope of response over the six menstrual cycles,women with menorrhagia [2]; p=0.615,−0.90 mL/cycle
same,"mean LPA score, change from baseline",women with menorrhagia [3]; 3-cycle study,Significant treatment-related reductions
same,"mean LSLA score, change from baseline",women with menorrhagia [3]; 3-cycle study,Significant treatment-related reductions
same,LWH (MI measure 2),women with menorrhagia [3]; [9],significantly reduced
same,subjects' assessments of MBL (MI item 1),women with menorrhagia [3]; [9],significantly reduced
same,proportion of responders,"women with menorrhagia [3]; 3.9 g/day, first menstrual cycle, reduction in MBL and meaningful improvement (MI 6c)",71.0%
same,women satisfied with the treatment,"heavy menstrual bleeding; Winkler open label uncontrolled usage study, 849 patients",80%
same,reduction of heavy menstrual bleeding,heavy menstrual bleeding; research from European countries,40-50%
same,difference between the LSM of predose Day 6 and 7,[4],less than 2%
same,"largest difference in predose plasma concentrations, LSM of predose Day 5 compared to Day 6 and 7",[4],less than 10%
same,clearance,[5],123 mL/min
same,mean reduction in MBL from baseline,women with menorrhagia [6]; 1.95 g/day,46.5 mL
same,percent MBL reduction compared with baseline,women with menorrhagia [6]; 1.95 g/day,26.1%
same,mean reduction in MBL from baseline,women with menorrhagia [6]; 3.9 g/day,65.3 mL
same,percent MBL reduction compared with baseline,women with menorrhagia [6]; 3.9 g/day,38.6%
same,AUC(0-t),[7]; read-out: expected mean AUC0-6,~40000 ng·h/mL
same,Cmax,[7]; read-out: expected mean Cmax,~10000 ng/mL
same,LWH (MI measure #2),women with menorrhagia [8]; [9],significantly reduced
same,subjects' assessments of MBL (MI measure #1),women with menorrhagia [8]; [9],significantly reduced
same,"mean LPA score, change from baseline",women with menorrhagia [8]; 6-cycle study,significant treatment-related reductions
same,"mean LSLA score, change from baseline",women with menorrhagia [8]; 6-cycle study,significant treatment-related reductions
